This is an account of results in ChEMBL document CHEMBL4184140, “Expanding the tetrahydroquinoline pharmacophore” (Bioorg Med Chem Lett, 2017).

Assay [1] concerns IMR-32. In words: Neurotrophic activity in human IMR32 cells assessed as length of neurite outgrown after 96 hrs by bright field microscopic analysis. The class given is functional, cell-based.
The subject of a further assay is MCF7. In words: Antiproliferative activity against human MCF7 cells. The class given is functional, cell-based.
The next assay relates to DU-145. In words: Antiproliferative activity against human DU145 cells. The class given is functional, cell-based.
The subject of another assay is A549. In words: Antiproliferative activity against human A549 cells. The class given is functional, cell-based.
The test system of a further assay is HepG2. Kind of assay: Antiproliferative activity against human HepG2 cells. The class given is functional, cell-based.
Assay [2] relates to IMR-32. Kind of assay: Cytotoxicity against human IMR32 cells after 48 hrs by SRB assay. The class given is cell-based. Particulars: IMR-32, 48 h.
In assay [3] the test system is IMR-32. In words: Neurotrophic activity in human IMR32 cells assessed as appearance of neurites at 1 to 10 uM after 96 hrs by bright field microscopic analysis. The class given is functional, cell-based.
Assay [4] concerns IMR-32. In words: Neurotrophic activity in human IMR32 cells assessed as increase in BDNF mRNA level at 10 uM by RT-PCR analysis. The class given is functional, cell-based.
In assay [5] the test system is IMR-32. In words: Neurotrophic activity in human IMR32 cells assessed as increase in NGF mRNA level at 10 uM by RT-PCR analysis. The class given is functional, cell-based.
Assay [6] concerns IMR-32. Kind of assay: Neurotrophic activity in human IMR32 cells assessed as increase in BDNF protein level at 10 uM by Western blot method. The class given is functional, cell-based. Background: A western blot detects proteins with antibodies after separation by electrophoresis.
Assay [7] relates to IMR-32. Kind of assay: Neurotrophic activity in human IMR32 cells assessed as increase in NGF protein level at 10 uM by Western blot method. The class given is functional, cell-based.
Assay [8] relates to IMR-32. In words: Neurotrophic activity in human IMR32 cells assessed as induction of differentiation at 1 uM after 96 hrs by bright filed microscopic method. The class given is functional, cell-based.
Assay [9] has as its system IMR-32. Kind of assay: Neurotrophic activity in human IMR32 cells assessed as induction of differentiation at 10 uM after 96 hrs by bright filed microscopic method. The class given is functional, cell-based.
The subject of assay [10] is IMR-32. Kind of assay: Neurotrophic activity in human IMR32 cells assessed as induction of differentiation at 50 uM after 96 hrs by bright filed microscopic method. The class given is functional, cell-based.

Molecules are shown by their SMILES. Calls of active or inactive are those of the source. The calls are words filed in the database; no cut-off is given here. Bounds are passed on as bounds.

What is called IC50 is the concentration at which inhibition is half-maximal. Read a high IC50 as lower potency. On to `CC(=O)N1c2cc([N+](=O)[O-])ccc2[C@H]2C=CC[C@H]2[C@H]1c1ccccc1`, for which the Activity result in the assay on IMR-32 [1] is “Dose-dependent effect”. Besides, the result in the assay on MCF7, in the assay on DU-145, with A549 and in the assay on HepG2 was inactive. The same compound gave a 50% inhibitory concentration (IC50) with IMR-32 [2] of more than 100 µM. Further, the outcome with IMR-32 [3], in the assay with IMR-32 [4], with IMR-32 [5], in the assay on IMR-32 [6] and in the assay on IMR-32 [7] was Active.

`C1=C[C@@H]2c3ccccc3N[C@H](c3ccccc3)[C@@H]2C1`: in the assay on IMR-32 [1], the Activity entry was “Dose-dependent effect”. For the same compound, the outcome with MCF7, in the assay with DU-145, in the assay on A549 and in the assay on HepG2 was inactive. Besides, the IC50 with IMR-32 [2] was more than 100 µM. The outcome in the assay with IMR-32 [4], in the assay with IMR-32 [5], with IMR-32 [6], with IMR-32 [7], in the assay with IMR-32 [8] and in the assay on IMR-32 [9] was Active.

For `COC(=O)C[C@@H]1[C@H](C(=O)OC)c2ccccc2N(C(C)=O)[C@@H]1c1ccccc1`, the Activity entry in the assay with IMR-32 [1] is “Dose-dependent effect”. Moreover, the result with MCF7, in the assay on DU-145, with A549 and in the assay on HepG2 was inactive. Further, the IC50 in the assay with IMR-32 [2] turned out to be 80.6 µM. Moreover, the result with IMR-32 [4], with IMR-32 [5], in the assay with IMR-32 [6], in the assay with IMR-32 [7], in the assay on IMR-32 [9] and in the assay on IMR-32 [10] was Active.

`CC(=O)N1c2ccccc2[C@H]2[C@@H](O)[C@H](N=[N+]=[N-])C[C@H]2[C@H]1c1ccccc1`: the Activity entry in the assay on IMR-32 [1] was “Dose-dependent effect”. Also, the result in the assay on MCF7, with DU-145, with A549 and with HepG2 was inactive. This compound also had a concentration for half-maximal inhibition (IC50) in the assay with IMR-32 [2] of more than 100 µM. Also, the outcome with IMR-32 [4], with IMR-32 [5], in the assay on IMR-32 [6], in the assay with IMR-32 [7] and in the assay on IMR-32 [9] was Active.

Take `CC(=O)N1c2ccccc2[C@@H]2[C@@H](C[C@@H]3O[C@H]23)[C@H]1c1ccccc1`: the Activity entry in the assay on IMR-32 [1] is “Dose-dependent effect”. For the same compound, the result in the assay on MCF7, in the assay on DU-145, in the assay with A549 and in the assay on HepG2 was inactive. The compound further came in with an IC50 in the assay with IMR-32 [2] of more than 100 µM. Further, the outcome with IMR-32 [4], in the assay with IMR-32 [5], in the assay with IMR-32 [6], with IMR-32 [7] and in the assay on IMR-32 [9] was Active.

With `O[C@@H]1[C@@H]2c3ccccc3N[C@H](c3cccc(Br)c3)[C@@H]2C[C@@H]1O`, the Activity result in the assay on IMR-32 [1] is “Dose-dependent effect”. Besides, the result with MCF7, with DU-145, in the assay with A549 and with HepG2 was inactive. The half-maximal inhibitory concentration (IC50) in the assay on IMR-32 [2] was more than 100 µM. In addition, the outcome in the assay on IMR-32 [3], with IMR-32 [4], with IMR-32 [5], in the assay with IMR-32 [6], with IMR-32 [7] and in the assay on IMR-32 [9] was Active.

With `CC(=O)N1c2cc([N+](=O)[O-])ccc2[C@@H]2[C@@H](C[C@@H]3O[C@H]23)[C@H]1c1ccccc1`, the outcome in the assay on MCF7, with DU-145, in the assay with A549 and in the assay on HepG2 was inactive. Moreover, in the assay with IMR-32 [2], half-maximal inhibition (IC50) was put at 56 µM. Besides, the outcome with IMR-32 [9] was Active.

For `O=[N+]([O-])c1ccc2c(c1)N[C@H](c1ccccc1)[C@@H]1C[C@H](O)[C@H](O)[C@H]21`, the result in the assay with MCF7, in the assay with DU-145, in the assay with A549, in the assay on HepG2 and in the assay on IMR-32 [3] was inactive. Also, the midpoint of inhibition in the assay on IMR-32 [2], the IC50, lay at 57.1 µM.
